Source: patent US12516039B2, “N-linked isoquinoline amides as LRRK2 inhibitors, pharmaceutical compositions, and uses thereof” (Merck Sharp & Dohme LLC, priority 2020, dated 2026)

Biological target: T1, GST-tagged truncated human mutant G2019S LRRK2 (Homo sapiens, UniProt Q5S007, G2019S)
T1 construct: GST-tagged truncated human mutant G2019S LRRK2; purchased Life Technologies Corporation (Carlsbad, CA)
Assay: LRRK2 G2019S Km ATP LanthaScreen assay
Format: biochemical
Settings: 134 μM ATP (Km ATP), LRRKtide substrate, mean of several tests
Summary of the method: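 IC50 values are means of repeat runs, fitted with a 4-parameter logistic to the 520/495 nm TR-FRET ratio from a Tb-labeled anti-phospho-LRRKtide antibody added with EDTA. Reactions ran 90 min at room temperature at Km ATP (134 μM) with fluorescein-LRRKtide, after 15-min compound preincubation with truncated GST-tagged G2019S LRRK2.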

T1 sequence (Q5S007 970-2527 G2019S limits assumed): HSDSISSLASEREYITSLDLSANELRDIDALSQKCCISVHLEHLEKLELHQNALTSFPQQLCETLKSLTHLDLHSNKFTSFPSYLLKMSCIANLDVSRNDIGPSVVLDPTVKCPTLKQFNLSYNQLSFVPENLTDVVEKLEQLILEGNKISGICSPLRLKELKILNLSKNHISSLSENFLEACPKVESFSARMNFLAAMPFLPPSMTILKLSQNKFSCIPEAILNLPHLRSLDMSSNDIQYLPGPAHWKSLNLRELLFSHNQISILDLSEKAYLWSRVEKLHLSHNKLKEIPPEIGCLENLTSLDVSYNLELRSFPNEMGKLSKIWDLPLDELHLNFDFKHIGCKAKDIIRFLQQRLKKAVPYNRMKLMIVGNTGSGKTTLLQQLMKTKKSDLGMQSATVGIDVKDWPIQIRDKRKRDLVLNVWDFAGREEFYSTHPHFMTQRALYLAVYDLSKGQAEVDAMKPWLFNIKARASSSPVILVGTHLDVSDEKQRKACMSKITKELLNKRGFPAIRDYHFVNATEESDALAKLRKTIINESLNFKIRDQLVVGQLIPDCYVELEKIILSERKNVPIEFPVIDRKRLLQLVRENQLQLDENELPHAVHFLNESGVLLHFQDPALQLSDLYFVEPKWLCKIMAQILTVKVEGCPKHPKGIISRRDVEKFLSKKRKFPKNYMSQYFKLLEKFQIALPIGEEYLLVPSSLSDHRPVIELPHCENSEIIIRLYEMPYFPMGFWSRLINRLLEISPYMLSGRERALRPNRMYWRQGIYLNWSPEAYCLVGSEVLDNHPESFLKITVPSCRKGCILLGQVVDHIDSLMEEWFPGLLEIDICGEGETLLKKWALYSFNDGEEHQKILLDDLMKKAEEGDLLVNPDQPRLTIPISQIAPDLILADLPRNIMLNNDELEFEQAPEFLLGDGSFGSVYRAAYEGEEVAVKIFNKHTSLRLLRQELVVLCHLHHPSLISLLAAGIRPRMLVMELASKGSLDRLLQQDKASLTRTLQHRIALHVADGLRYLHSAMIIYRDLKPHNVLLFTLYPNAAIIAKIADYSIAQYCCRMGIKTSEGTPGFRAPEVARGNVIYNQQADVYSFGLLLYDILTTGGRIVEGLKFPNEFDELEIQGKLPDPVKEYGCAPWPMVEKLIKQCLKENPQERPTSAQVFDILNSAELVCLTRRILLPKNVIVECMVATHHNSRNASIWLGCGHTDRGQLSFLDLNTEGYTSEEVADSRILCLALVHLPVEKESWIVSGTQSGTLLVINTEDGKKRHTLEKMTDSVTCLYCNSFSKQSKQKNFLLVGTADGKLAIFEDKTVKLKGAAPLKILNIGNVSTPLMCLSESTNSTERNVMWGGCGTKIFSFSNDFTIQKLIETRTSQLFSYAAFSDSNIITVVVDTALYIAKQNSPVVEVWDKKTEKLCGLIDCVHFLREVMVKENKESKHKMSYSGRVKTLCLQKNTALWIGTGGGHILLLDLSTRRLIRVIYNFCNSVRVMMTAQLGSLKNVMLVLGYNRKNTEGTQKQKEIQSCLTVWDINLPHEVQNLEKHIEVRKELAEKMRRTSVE

In the case of `CCC1C(C(=O)Nc2cc3cc(N4CCC(F)(C#N)CC4)c(Cl)cc3cn2)C1c1cnn(C)c1` (stereo not shown) [Ex-4.10], the “LRRK2 pIC50” value was 7.29.

Same assay, conditions: 134 μM ATP (Km ATP), LRRKtide substrate, mean of several tests, read-out: LRRK2 pIC50 (converted)

`Cc1cc2cnc(NC(=O)C3CC3c3cnn(C)c3C(F)(F)F)cc2cc1N1CCN(C2(C)CCOC2)CC1` (single isomer, unassigned) [Ex-10.34, (1R,2R or 1S,2S)-N-[7-methyl-6-[4-((R or S)-3-methyltetrahydrofuran-3-yl)piperazin-1-yl]-3-isoquinolyl]-2-[1-methyl-5-(trifluoromethyl)pyrazol-4-yl]cyclopropanecarboxamide] and `Cn1ncc(C2CC2C(=O)Nc2cc3cc(N4CCN(C5(C)CCOC5)CC4)c(Cl)cc3cn2)c1C(F)(F)F` (single isomer, unassigned) [Ex-10.28, (1R,2R or 1S,2S)-N-[7-chloro-6-[4-((R or S)-3-methyltetrahydrofuran-3-yl)piperazin-4-ium-1-yl]-3-isoquinolyl]-2-[1-methyl-5-(trifluoromethyl)pyrazol-4-yl]cyclopropanecarboxamide] are within 1.5-fold of each other in IC50: 69.2 nM for the first, 56.2 nM for the second.

Going from `CC1(N2CCN(c3cc4cc(NC(=O)C5CC5)ncc4cc3F)CC2)COCC1O` (single isomer, unassigned) [Ex-1.6, (3R,4R or 3S,4S)-N-(7-fluoro-6-(4-(4-hydroxy-3-methyltetrahydrofuran-3-yl)piperazin-1-yl)isoquinolin-3-yl)cyclopropanecarboxamide] to `CC1(N2CCN(c3cc4cc(NC(=O)C5CC56CC6(F)F)ncc4cc3Cl)CC2)COCC1O` (single isomer, unassigned) [Ex-2.16, (1R,3R or 1S,3S)-N-(7-chloro-6-(4-((3R,4R or 3S,4S)-4-hydroxy-3-methyltetrahydrofuran-3-yl)piperazin-1-yl)isoquinolin-3-yl)-4,4-difluorospiro[2.2]pentane-1-carboxamide], the IC50 falls from 912 nM to 0.813 nM (1100-fold).

First: Cc1cc2cnc(NC(=O)C3CC34CCOC4)cc2cc1N1CCN(C2(C)COCC2O)CC1 (single isomer, unassigned) [Ex-6.9, (1R, 3S or 1S,3R, or 1R,3S, or 1S,3S)-N-(6-(4-((3R, 4R or 3S,4S)-4-hydroxy-3-methyltetrahydrofuran-3-yl)piperazin-1-yl)-7-methylisoquinolin-3-yl)-5-oxaspiro[2.4]heptane-1-carboxamide]
Second: CC1(N2CCN(c3cc4cc(NC(=O)C5CC56CC6)ncc4cc3Cl)CC2)COCC1O (single isomer, unassigned) [Ex-2.14, (R or S)-N-(7-chloro-6-(4-((3R,4R or 3S,4S)-4-hydroxy-3-methyltetrahydrofuran-3-yl)piperazin-1-yl)isoquinolin-3-yl)spiro[2.2]pentane-1-carboxamide]
The IC50 of the first is 690-fold higher: 324 nM for the first, 0.468 nM for the second.

First: CC1(N2CCN(c3cc4cc(NC(=O)C5CCC5c5ccccn5)ncc4cc3Cl)CC2)COCC1O (single isomer, unassigned) [Ex-11.6, (1R,2R or 1S,2S)-N-(7-chloro-6-(4-((3R,4R or 3S,4S)-4-hydroxy-3-methyltetrahydrofuran-3-yl)piperazin-1-yl)isoquinolin-3-yl)-2-(pyridin-2-yl)cyclobutane-1-carboxamide]
Second: CC1C(C(=O)Nc2cc3cc(N4CCN(C5(C)COCC5O)CC4)c(Cl)cc3cn2)C1c1ccccn1 (single isomer, unassigned) [Ex-11.3, (1R,2R,3R, or 1R,2S,3R, or 1S,2R,3S, or 1S,2S,3S)-N-(7-chloro-6-(4-((3R,4R or 3S,4S)-4-hydroxy-3-methyltetrahydrofuran-3-yl)piperazin-1-yl)isoquinolin-3-yl)-2-methyl-3-(pyridin-2-yl)cyclopropane-1-carboxamide]
The IC50 of the first is 1.6-fold higher: 0.132 nM for the first, 0.0813 nM for the second.

`C[C@H]1CN(c2cc3cc(NC(=O)C4CC45CCOCC5)ncc3cc2Cl)CCN1C1COCC1O` (single isomer, unassigned) [Ex-2.4, (R or S)-N-{7-chloro-6-[(3S or 3R)-4-(3R,4R or 3S,4S)-4-hydroxyoxolan-3-yl)-3-methylpiperazin-1-yl]isoquinolin-3-yl}-6-oxaspiro[2.5]octane-1-carboxamide] and `CCC1(N2CCN(c3cc4cc(NC(=O)C5CC56CCOCC6)ncc4cc3Cl)CC2)COCC1O` (single isomer, unassigned) [Ex-2.22, (R or S)-N-(7-chloro-6-(4-((3R,4R or 3S,4S)-3-ethyl-4-hydroxytetrahydrofuran-3-yl)piperazin-1-yl)isoquinolin-3-yl)-6-oxaspiro[2.5]octane-1-carboxamide] are within 1.5-fold of each other in IC50: 0.38 nM for the first, 0.372 nM for the second.

Compared with `CC1(C)CC2(CCO1)CC2C(=O)Nc1cc2cc(N3CCN(C4(C)COCC4O)CC3)c(Cl)cc2cn1` (single isomer, unassigned) [Ex-7.5], `CC1(C2CCOC2)CC1C(=O)Nc1cc2cc(N3CCN(C4(C)COCC4O)CC3)c(Cl)cc2cn1` (single isomer, unassigned) [Ex-10.86, (1R,2R or 1S,2S, or 1R,2S, or 1S,2R)-N-[7-chloro-6-[4-((3R,4R or 3S,4S)-4-hydroxy-3-methyl-tetrahydrofuran-3-yl)piperazin-1-yl]-3-isoquinolyl]-2-methyl-2-tetrahydrofuran-3-yl-cyclopropanecarboxamide] is 1.9-fold lower in IC50: 0.155 nM for the first, 0.0813 nM for the second.

Compared with `CC(C)n1nccc1C1CC1C(=O)Nc1cc2cc(N3CCN(C4(C)COCC4O)CC3)c(Cl)cc2cn1` (single isomer, unassigned) [Ex-10.22, (1R,2R or 1S,2S)-N-[7-chloro-6-[4-((3R,4R or 3S,4S)-4-hydroxy-3-methyl-tetrahydrofuran-3-yl)piperazin-1-yl]-3-isoquinolyl]-2-(2-isopropylpyrazol-3-yl)cyclopropanecarboxamide], `Cn1ncc(C2CC2C(=O)Nc2cc3cc(N4CCN(C5(C)COCC5O)CC4)c(Cl)cc3cn2)n1` (single isomer, unassigned) [Ex-16.1, (1S,2R or 1S,2S)-N-(N-(7-chloro-6-(4-(4-hydroxy-3-methyltetrahydrofuran-3-yl)piperazin-1-yl)isoquinolin-3-yl)-2-(2-methyl-2H-1,2,3-triazol-4-yl)cyclopropane-1-carboxamide] is 19-fold lower in IC50: 2.69 nM for the first, 0.145 nM for the second.

First: Cc1cc2cnc(NC(=O)C3CC3c3ccccn3)cc2cc1N1CCN(C2(C)CCOC2)CC1 (single isomer, unassigned) [Ex-9.18]
Second: CCC1C(C(=O)Nc2cc3cc(N4CCN(C5(C)CCOC5)CC4)c(C)cc3cn2)C1c1cnn(C)c1 (single isomer, unassigned) [Ex-10.38, (1R,2R,3R, 1R,2S,3R, 1S,2R,3S, or 1S,2S,3S)-2-ethyl-N-[7-methyl-6-[4-((R or S)-3-methyltetrahydrofuran-3-yl)piperazin-4-ium-1-yl]-3-isoquinolyl]-3-(1-methylpyrazol-4-yl)cyclopropanecarboxamide]
The IC50 of the first is 130-fold higher: 100 nM for the first, 0.759 nM for the second.

First: CC1(N2CCN(c3cc4cc(NC(=O)C5CCC56CCOCC6)ncc4cc3Cl)CC2)COCC1O (single isomer, unassigned) [Ex-1.28, (R or S)-N-(7-chloro-6-(4-((3R,4R or 3S,4S)-4-hydroxy-3-methyltetrahydrofuran-3-yl)piperazin-1-yl)isoquinolin-3-yl)-7-oxaspiro[3.5]nonane-1-carboxamide]
Second: CC1(N2CCN(c3cc4cc(NC(=O)C5CC56CCOCC6)ncc4cc3Cl)CC2)CCOC1 (single isomer, unassigned) [Ex-5.13]
The IC50 of the first is 6.9-fold lower: 12 nM for the first, 83.2 nM for the second.

Compared with `O=C(Nc1cc2cc(N3CCN(C4COCC4O)CC3)c(Cl)cc2cn1)C1CC1` (single isomer, unassigned) [Ex-1.4, (3R,4R or 3S,4S)-N-(7-chloro-6-(4-(4-hydroxytetrahydrofuran-3-yl)piperazin-1-yl)isoquinolin-3-yl)cyclopropanecarboxamide], `CC1(C2CCOC2)CC1C(=O)Nc1cc2cc(N3CCN(C4(C)COCC4O)CC3)c(Cl)cc2cn1` (single isomer, unassigned) [Ex-10.84, (1R,2R or 1S,2S, or 1R,2S, or 1S,2R)-N-[7-chloro-6-[4-((3R,4R or 3S,4S)-4-hydroxy-3-methyl-tetrahydrofuran-3-yl)piperazin-1-yl]-3-isoquinolyl]-2-methyl-2-tetrahydrofuran-3-yl-cyclopropanecarboxamide] is 270-fold lower in IC50: 57.5 nM for the first, 0.214 nM for the second.

`Cc1cc2cnc(NC(=O)C3CC3c3ccccn3)cc2cc1N1CCN(C2(C)CCOC2)CC1` (single isomer, unassigned) [Ex-9.17] and `CC1C(C(=O)Nc2cc3cc(N4CCN(C5(C)CCOC5)CC4)c(Cl)cc3cn2)C1c1cnn(C)c1` (stereo not shown) [Ex-9.6] are within 1.5-fold of each other in IC50: 1.29 nM for the first, 1 nM for the second.

First: CC1C(C(=O)Nc2cc3cc(N4CCN(C5(C)COCC5F)CC4)c(Cl)cc3cn2)C1c1ccn(C)n1 (single isomer, unassigned) [Ex-10.15]
Second: CC1(C2CCOC2)CC1C(=O)Nc1cc2cc(N3CCN(C4(C)COCC4O)CC3)c(Cl)cc2cn1 (single isomer, unassigned) [Ex-10.83, (1R,2R or 1S,2S, or 1R,2S, or 1S,2R)-N-[7-chloro-6-[4-((3R,4R or 3S,4S)-4-hydroxy-3-methyl-tetrahydrofuran-3-yl)piperazin-1-yl]-3-isoquinolyl]-2-methyl-2-tetrahydrofuran-3-yl-cyclopropanecarboxamide]
The IC50 of the first is 2.2-fold higher: 1.17 nM for the first, 0.525 nM for the second.

First: O=C(Nc1cc2cc(N3C(=O)C4CCC3C4)ccc2cn1)C1CC1 (single isomer, unassigned) [Ex-5.1]
Second: CC1(N2CCN(c3cc4cc(NC(=O)C5CCC56CCOCC6)ncc4cc3Cl)CC2)COCC1O (single isomer, unassigned) [Ex-1.27, (R or S)-N-(7-chloro-6-(4-((3R,4R or 3S,4S)-4-hydroxy-3-methyltetrahydrofuran-3-yl)piperazin-1-yl)isoquinolin-3-yl)-7-oxaspiro[3.5]nonane-1-carboxamide]
The IC50 of the first is 7.4-fold higher: 9.55 nM for the first, 1.29 nM for the second.

For `CC1(C)CC2(CCO1)CC2C(=O)Nc1cc2cc(N3CCN(C4(C)COCC4O)CC3)c(Cl)cc2cn1` (single isomer, unassigned) [Ex-7.4], the IC50 was 0.776 nM.
